Test [1] deals with T1, Glucagon-like peptide 2 receptor (Homo sapiens) (UniProt O95838).
T1 sequence (whole entry): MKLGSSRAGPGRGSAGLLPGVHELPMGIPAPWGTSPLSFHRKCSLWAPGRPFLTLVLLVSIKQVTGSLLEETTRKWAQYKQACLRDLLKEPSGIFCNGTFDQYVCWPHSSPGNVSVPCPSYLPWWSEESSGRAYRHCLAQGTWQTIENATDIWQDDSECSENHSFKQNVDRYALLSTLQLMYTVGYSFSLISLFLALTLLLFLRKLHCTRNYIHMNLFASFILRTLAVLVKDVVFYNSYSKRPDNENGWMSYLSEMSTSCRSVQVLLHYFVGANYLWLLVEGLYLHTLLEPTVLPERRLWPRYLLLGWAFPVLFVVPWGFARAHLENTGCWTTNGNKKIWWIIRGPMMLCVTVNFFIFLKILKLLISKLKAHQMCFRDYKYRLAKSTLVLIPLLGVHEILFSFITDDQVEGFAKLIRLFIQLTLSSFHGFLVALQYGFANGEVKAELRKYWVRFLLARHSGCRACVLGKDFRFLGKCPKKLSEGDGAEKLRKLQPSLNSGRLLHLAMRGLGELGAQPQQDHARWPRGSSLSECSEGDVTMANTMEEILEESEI
Nature of the test: Positive ago-allosteric modulation of GLP2R overexpressed in human SE302 cells assessed as placental alkaline phosphatase activation measured on day 3 by Alamar Blue assay relative to GLP2. The test is classed as cell-based.

Test [2] has as its target T1, Glucagon-like peptide 2 receptor (Homo sapiens). Nature of the test: Displacement of [125I]-Bolton Hunter labeled GLP2 from GLP2R overexpressed in human SE302 cell membranes at 10 uM after 2 hrs by gamma counter.
Test [3] has the same target. Kind of test: Positive ago-allosteric modulation of GLP2R overexpressed in human SE302 cells assessed as increase in (Z)-methyl 2-(2-(2,5-dichlorothiophen-3-yl)-2-(hydroxyimino)ethylthio)benzoate-induced placental alkaline phosphatase activation measured on day 3 by Alamar Blue assay. The test is classed as cell-based. On the technique in general: Alamar Blue is a resazurin reagent that responds to reducing activity.

Test [4] has the same target. Nature of the test: Displacement of [125I]-Bolton Hunter labeled GLP2 from GLP2R overexpressed in human SE302 cell membranes at 1 uM after 2 hrs by gamma counter. Background: In a radioligand displacement assay an active substance lowers the binding of a labelled ligand.
Test [5] has as its target T2, Glucagon-like peptide 2 receptor (Homo sapiens, UniProt O95838).
T2 sequence (O95838 whole entry): T1 sequence (whole entry)
Kind of test: (§1) Positive ago-allosteric modulation of GLP2R overexpressed in human SE302 cells assessed as placental alkaline phosphatase activation measured on day 3 by Alamar Blue assay. The test is classed as cell-based.

Test [6] addresses T1, Glucagon-like peptide 2 receptor (Homo sapiens). Kind of test: Positive ago-allosteric modulation of GLP2R overexpressed in human SE302 cells assessed as reduction of GLP2-induced cAMP level at 3 to 10 uM after 30 mins. The test is classed as functional, cell-based.
Test [7] has the same target. Kind of test: Displacement of [125I]-Bolton Hunter labeled GLP2 from GLP-2R overexpressed in human SE302 cell membranes up to 100 uM after 2 hrs by gamma counter.
For test [8] the target is unchanged. Nature of the test: Positive ago-allosteric modulation of GLP2R overexpressed in human SE302 cells assessed as placental alkaline phosphatase activation at 50 uM measured on day 3 by Alamar Blue assay relative to 100 pM GLP2. The test is classed as cell-based.
Test [9] shares this target. Nature of the test: Positive ago-allosteric modulation of GLP2R overexpressed in human SE302 cells assessed as GLP2 (3 to 33)-induced placental alkaline phosphatase activation at 10 uM measured on day 3 by Alamar Blue assay relative to GLP2. The test is classed as cell-based.
Test [10] shares this target. Kind of test: Positive ago-allosteric modulation of GLP2R overexpressed in human SE302 cells assessed as decrease in GLP2 (11 to 33) EC50 at 1 uM measured on day 3 by Alamar Blue assay relative to control. The test is classed as cell-based.
For test [11] the target is unchanged. Kind of test: Positive ago-allosteric modulation of GLP2R overexpressed in human SE302 cells assessed as leftward shift in GLP2-induced placental alkaline phosphatase activation measured on day 3 by Alamar Blue assay. The test is classed as cell-based.
For test [12] the target is unchanged. Kind of test: Positive ago-allosteric modulation of GLP2R overexpressed in human SE302 cells assessed as increase in GLP2 (3 to 33)-induced placental alkaline phosphatase activation at 1 uM measured on day 3 by Alamar Blue assay relative to control. The test is classed as cell-based.
The target is the same in test [13]. Nature of the test: Positive ago-allosteric modulation of GLP2R overexpressed in human SE302 cells assessed as increase in GLP2 (11 to 33)-induced placental alkaline phosphatase activation at 10 uM measured on day 3 by Alamar Blue assay relative to control. The test is classed as cell-based.
The target is the same in test [14]. Nature of the test: Positive ago-allosteric modulation of GLP2R overexpressed in human SE302 cells assessed as change in GLP2 EC50 measured on day 3 by Alamar Blue assay relative to control. The test is classed as cell-based.
Test [15] shares this target. Nature of the test: Positive ago-allosteric modulation of GLP2R overexpressed in human SE302 cells assessed as increase in GLP2 (11 to 33)-induced placental alkaline phosphatase activation at 1 uM measured on day 3 by Alamar Blue assay relative to control. The test is classed as cell-based.
Test [16] shares this target. Kind of test: Positive ago-allosteric modulation of GLP2R overexpressed in human SE302 cells assessed as increase in intracellular cAMP level at 1 to 10 uM after 30 mins in presence of GLP2 (11 to 33). The test is classed as functional, cell-based. A general note: cAMP levels reflect the balance of adenylyl cyclase and phosphodiesterase activity.
In test [17] the target is Glucagon-like peptide 1 receptor (Homo sapiens) (UniProt P43220). Kind of test: Positive ago-allosteric modulation of GLP1R overexpressed in human SE302 cells assessed as increase in intracellular cAMP level at 10 to 100 uM after 30 mins. The test is classed as functional, cell-based.
For test [18], the target named is T1, Glucagon-like peptide 2 receptor (Homo sapiens). Nature of the test: Positive ago-allosteric modulation of GLP2R overexpressed in human SE302 cells assessed as placental alkaline phosphatase activation at 25 uM measured on day 3 by Alamar Blue assay relative to 10 pM GLP2. The test is classed as cell-based.
Test [19] shares this target. Kind of test: Positive ago-allosteric modulation of GLP2R overexpressed in human SE302 cells assessed as increase in GLP2 (11 to 33)-induced placental alkaline phosphatase activation at 10 uM measured on day 3 by Alamar Blue assay relative to GLP2. The test is classed as cell-based.
For test [20] the target is unchanged. Nature of the test: Positive ago-allosteric modulation of GLP2R overexpressed in human SE302 cells assessed as decrease in GLP2 (11 to 33) EC50 at 10 uM measured on day 3 by Alamar Blue assay relative to control. The test is classed as cell-based.
For test [21] the target is unchanged. Kind of test: Positive ago-allosteric modulation of GLP2R overexpressed in human SE302 cells assessed as upward shift in GLP2-induced placental alkaline phosphatase activation measured on day 3 by Alamar Blue assay. The test is classed as cell-based.
Test [22] shares this target. Nature of the test: Positive ago-allosteric modulation of GLP2R overexpressed in human SE302 cells assessed as increase in intracellular cAMP level at 10 uM after 30 mins in presence of GLP2. The test is classed as functional, cell-based.
For test [23] the target is unchanged. Kind of test: Positive ago-allosteric modulation of GLP2R overexpressed in human SE302 cells assessed as placental alkaline phosphatase activation at 25 uM measured on day 3 by Alamar Blue assay relative to 100 pM GLP2. The test is classed as cell-based.
The target is the same in test [24]. Nature of the test: Positive ago-allosteric modulation of GLP2R overexpressed in human SE302 cells assessed as decrease in GLP2 (3 to 33) EC50 at 1 uM measured on day 3 by Alamar Blue assay relative to control. The test is classed as cell-based.
Test [25] shares this target. Kind of test: Positive ago-allosteric modulation of GLP2R overexpressed in human SE302 cells assessed as increase in intracellular cAMP level at 1 to 10 uM after 30 mins in presence of GLP2 (3 to 33). The test is classed as functional, cell-based.
The target is the same in test [26]. The test is described as §1. The test is classed as cell-based.
Test [27] has the same target. Kind of test: Positive ago-allosteric modulation of GLP2R overexpressed in human SE302 cells assessed as increase in GLP2 (3 to 33)-induced placental alkaline phosphatase activation at 10 uM measured on day 3 by Alamar Blue assay relative to control. The test is classed as cell-based.
For test [28] the target is unchanged. Nature of the test: Positive ago-allosteric modulation of GLP2R overexpressed in human SE302 cells assessed as increase in GLP2-induced placental alkaline phosphatase activation at 10 uM measured on day 3 by Alamar Blue assay relative to control. The test is classed as cell-based.
The target is the same in test [29]. Nature of the test: Positive ago-allosteric modulation of GLP2R overexpressed in human SE302 cells assessed as decrease in GLP2 (3 to 33) EC50 at 10 uM measured on day 3 by Alamar Blue assay relative to control. The test is classed as cell-based.
The target is the same in test [30]. Nature of the test: Positive ago-allosteric modulation of GLP2R overexpressed in human SE302 cells assessed as increase in intracellular cAMP level at 10 to 100 uM after 30 mins. The test is classed as functional, cell-based.

We go through three compounds from ChEMBL document CHEMBL2176875, “Ago-allosteric modulators of human glucagon-like peptide 2 receptor” (Bioorg Med Chem Lett, 2012).

Active and inactive are the calls of the source. No cut-off for these calls is given here.

Glucagon-like peptide 1 receptor (Homo sapiens), sequence (P43220 whole entry): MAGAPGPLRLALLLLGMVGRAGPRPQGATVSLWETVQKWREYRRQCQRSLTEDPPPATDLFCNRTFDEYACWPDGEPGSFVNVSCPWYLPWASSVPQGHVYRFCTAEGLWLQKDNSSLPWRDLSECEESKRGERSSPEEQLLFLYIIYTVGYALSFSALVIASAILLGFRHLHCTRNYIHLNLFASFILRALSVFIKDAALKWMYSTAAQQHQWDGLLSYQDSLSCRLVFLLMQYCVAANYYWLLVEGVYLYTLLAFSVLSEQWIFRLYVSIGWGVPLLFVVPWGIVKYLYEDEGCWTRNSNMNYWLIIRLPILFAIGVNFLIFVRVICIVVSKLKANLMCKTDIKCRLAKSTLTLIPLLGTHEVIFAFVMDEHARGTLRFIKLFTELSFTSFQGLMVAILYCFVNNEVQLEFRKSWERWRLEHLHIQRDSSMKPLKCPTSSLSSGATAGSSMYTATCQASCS

As a reminder, the EC50 is the concentration that produces a half-maximal response. With H-NTILDNLAARDFINWLIQTKITD-OH, the %max in [1] was 11%. Also, the Activity in test [2] was 100%; in [3], “Dose-dependent effect”; in test [4] it was 88%; in test [6], “Dose-dependent effect”. Further, the EC50 in test [5] is 1300 nM.
In the case of `O/N=C(\CSc1ccncc1)c1cc(Cl)sc1Cl`, the outcome in test [7] was inactive. For the same compound, in test [8], the %max came out at 55%.
Consider `O/N=C(\CSc1ccccc1)c1cc(Cl)sc1Cl`, for which the result in test [9], in [16], in [19], in test [22], in test [25] and in test [30] was Active. The fold change (FC) in test [10] is 3.4; in [20], 17; in test [24] it was 1.2; in test [29], 3.3. In addition, the Activity entry is “Dose-dependent effect” in test [11], “Dose-dependent effect” in [21] and 10% in test [28]. Besides, the %max in test [12] was determined as 110%; in test [13], 930%; in [15], 490%; in test [18], 701%; in [23] it was 55%; in test [27] it was 150%. For the same compound, the outcome in test [14], in test [17] and in test [26] was inactive.
